≈ marks a conversion by molar mass, not a printed value.
Assays:
Rattus norvegicus = test: Intrinsic clearance in Wistar Han rat at 1 mg/kg, iv by LC/MS/MS analysis; type: ADME, organism-based; parameters: dose 1 mg/kg, route intravenous; conditions: in vivo
[1] = Fraction unbound in mouse plasma; type: ADME, cell-free
[2] = Plasma clearance in Wistar Han rat at 1 mg/kg, iv by LC/MS/MS analysis; type: ADME, organism-based; parameters: dose 1 mg/kg, route intravenous
[3] = Fraction unbound in rat plasma; type: ADME, cell-free
[4] = Fraction unbound in human plasma; type: ADME, cell-free
Acinetobacter baumannii = test: Antibacterial activity against Acinetobacter baumannii AB-3167 by broth microdilution method; type: functional
Pseudomonas aeruginosa [5] = test: Antibacterial activity against Pseudomonas aeruginosa 1042-06 by broth microdilution method; type: functional
Pseudomonas aeruginosa [6] = test: microbe, parasite or virus in culture; conditions: 1091-05
Description: Antibacterial activity against Pseudomonas aeruginosa 1091-05 by broth microdilution method

[7] = Inhibition of PBP3 in Pseudomonas aeruginosa ATCC 27853 after 20 mins by fluorescence assay
[8] = Inhibition of PBP2 in Pseudomonas aeruginosa ATCC 27853 after 20 mins by fluorescence assay
[9] = Inhibition of PBP1b in Pseudomonas aeruginosa ATCC 27853 after 20 mins by fluorescence assay
[10] = Inhibition of PBP1a in Pseudomonas aeruginosa ATCC 27853 after 20 mins by fluorescence assay
Pseudomonas aeruginosa [11] = test: Antibacterial activity against Pseudomonas aeruginosa from cystic fibrosis patients by broth microdilution method; type: functional
Acinetobacter sp. = test: Antibacterial activity against Acinetobacter spp. by broth microdilution method; type: functional
Escherichia coli [12] = test: Antibacterial activity against Escherichia coli expressing defined beta-lactamase by broth microdilution method; type: functional
Escherichia coli [13] = test: Antibacterial activity against Escherichia coli expressing CTX-M by broth microdilution method; type: functional
Escherichia coli [14] = test: Antibacterial activity against Escherichia coli expressing ESBL by broth microdilution method; type: functional
Klebsiella pneumoniae [15] = test: Antibacterial activity against Klebsiella pneumoniae expressing KPC by broth microdilution method; type: functional
Klebsiella pneumoniae [16] = test: Antibacterial activity against Klebsiella pneumoniae expressing ESBL by broth microdilution method; type: functional
Klebsiella pneumoniae [17] = test: Antibacterial activity against Klebsiella pneumoniae expressing defined beta-lactamase by broth microdilution method; type: functional
Pseudomonas aeruginosa [18] = test: Antibacterial activity against Pseudomonas aeruginosa expressing metallo-beta-lactamase by broth microdilution method; type: functional
Klebsiella pneumoniae [19] = test: Antibacterial activity against Klebsiella pneumoniae 1487-07 by broth microdilution method; type: functional
Klebsiella pneumoniae [20] = test: Antibacterial activity against Klebsiella pneumoniae 1000-02 by broth microdilution method; type: functional
Pseudomonas aeruginosa [21] = test: Ratio of MIC for PiuA/PirA receptor-deficient Pseudomonas aeruginosa PAO1 to MIC for Pseudomonas aeruginosa PAO1 in iron-chelated Muller-Hinton broth medium by broth microdilution method; type: functional
Pseudomonas aeruginosa [22] = test: Ratio of MIC for PiuA/PirA receptor-deficient Pseudomonas aeruginosa PAO1 to MIC for Pseudomonas aeruginosa PAO1 in Muller-Hinton broth medium by broth microdilution method; type: functional
Pseudomonas aeruginosa [23] = test: Ratio of MIC for PiuA receptor-deficient Pseudomonas aeruginosa PAO1 to MIC for Pseudomonas aeruginosa PAO1 in Muller-Hinton broth medium by broth microdilution method; type: functional
Pseudomonas aeruginosa [24] = test: Antibacterial activity against PiuA/PirA receptor-deficient Pseudomonas aeruginosa PAO1 in iron-chelated Muller-Hinton broth medium by broth microdilution method; type: functional
Pseudomonas aeruginosa [25] = test: Antibacterial activity against PiuA/PirA receptor-deficient Pseudomonas aeruginosa PAO1 in Muller-Hinton broth medium by broth microdilution method; type: functional
Pseudomonas aeruginosa [26] = test: Antibacterial activity against PiuA/FptA receptor-deficient Pseudomonas aeruginosa PAO1 in iron-chelated Muller-Hinton broth medium by broth microdilution method; type: functional
Pseudomonas aeruginosa [27] = test: Antibacterial activity against PiuA/FptA receptor-deficient Pseudomonas aeruginosa PAO1 in Muller-Hinton broth medium by broth microdilution method; type: functional
Pseudomonas aeruginosa [28] = test: Antibacterial activity against PiuA/FpvA receptor-deficient Pseudomonas aeruginosa PAO1 in iron-chelated Muller-Hinton broth medium by broth microdilution method; type: functional
Pseudomonas aeruginosa [29] = test: Antibacterial activity against PiuA/FpvA receptor-deficient Pseudomonas aeruginosa PAO1 in Muller-Hinton broth medium by broth microdilution method; type: functional
Pseudomonas aeruginosa [30] = test: Antibacterial activity against FptA receptor-deficient Pseudomonas aeruginosa PAO1 in iron-chelated Muller-Hinton broth medium by broth microdilution method; type: functional
Pseudomonas aeruginosa [31] = test: Antibacterial activity against FptA receptor-deficient Pseudomonas aeruginosa PAO1 in Muller-Hinton broth medium by broth microdilution method; type: functional
Pseudomonas aeruginosa [32] = test: Antibacterial activity against FpvA receptor-deficient Pseudomonas aeruginosa PAO1 in iron-chelated Muller-Hinton broth medium by broth microdilution method; type: functional
Pseudomonas aeruginosa [33] = test: Antibacterial activity against FpvA receptor-deficient Pseudomonas aeruginosa PAO1 in Muller-Hinton broth medium by broth microdilution method; type: functional
Pseudomonas aeruginosa [34] = test: Antibacterial activity against PirA receptor-deficient Pseudomonas aeruginosa PAO1 in iron-chelated Muller-Hinton broth medium by broth microdilution method; type: functional
Pseudomonas aeruginosa [35] = test: Antibacterial activity against PirA receptor-deficient Pseudomonas aeruginosa PAO1 in Muller-Hinton broth medium by broth microdilution method; type: functional
Pseudomonas aeruginosa [36] = test: Antibacterial activity against PiuA receptor-deficient Pseudomonas aeruginosa PAO1 in iron-chelated Muller-Hinton broth medium by broth microdilution method; type: functional
Pseudomonas aeruginosa [37] = test: Antibacterial activity against PiuA receptor-deficient Pseudomonas aeruginosa PAO1 in Muller-Hinton broth medium by broth microdilution method; type: functional
Pseudomonas aeruginosa [38] = test: Antibacterial activity against Pseudomonas aeruginosa PAO1 in iron-chelated Muller-Hinton broth medium by broth microdilution method; type: functional
Pseudomonas aeruginosa [39] = test: Antibacterial activity against Pseudomonas aeruginosa PAO1 in Muller-Hinton broth medium by broth microdilution method; type: functional

## CC(C)(O/N=C(\C(=O)N[C@@H]1C(=O)N(S(=O)(=O)O)[C@@H]1Cn1cc(COCc2cc(=O)c(O)cn2O)nn1)c1csc(N)n1)C(=O)O
Rattus norvegicus
  CL: 94 mL/min/kg
[1]
  fraction unbound: 0.8
[2]
  clearance: 31.3 mL/min/kg
[3]
  fraction unbound: 0.6
[4]
  fraction unbound: 0.5
Acinetobacter baumannii
  MIC: 0.25 µg/mL (≈ 0.372 µM)
Pseudomonas aeruginosa [5]
  MIC: 1 µg/mL (≈ 1.49 µM)
Pseudomonas aeruginosa [6]
  MIC: 0.25 µg/mL (≈ 0.372 µM)

## C[C@H]1[C@H](NC(=O)/C(=N\OC(C)(C)C(=O)O)c2csc(N)n2)C(=O)N1S(=O)(=O)O [AZTREONAM]
[7]
  IC50: 8 nM
[8]
  IC50: > 300000 nM
[9]
  IC50: 2870 nM
[10]
  IC50: 3340 nM
Pseudomonas aeruginosa [11]
  MIC50: 8 µg/mL (≈ 18.4 µM)
  MIC90: 64 µg/mL (≈ 147 µM)
Acinetobacter sp.
  MIC50: 32 µg/mL (≈ 73.5 µM)
  MIC90: > 64 µg/mL
Escherichia coli [12]
  MIC50: 4 µg/mL (≈ 9.19 µM)
  MIC90: > 64 µg/mL
Escherichia coli [13]
  MIC50: 64 µg/mL (≈ 147 µM)
  MIC90: > 64 µg/mL
Escherichia coli [14]
  MIC50: 64 µg/mL (≈ 147 µM)
  MIC90: > 64 µg/mL
Klebsiella pneumoniae [15]
  MIC50: > 64 µg/mL
  MIC90: > 64 µg/mL
Klebsiella pneumoniae [16]
  MIC50: 32 µg/mL (≈ 73.5 µM)
  MIC90: > 64 µg/mL
Klebsiella pneumoniae [17]
  MIC50: 64 µg/mL (≈ 147 µM)
  MIC90: > 64 µg/mL
Pseudomonas aeruginosa [18]
  MIC50: 8 µg/mL (≈ 18.4 µM)
  MIC90: 16 µg/mL (≈ 36.7 µM)
Acinetobacter baumannii
  MIC: 4 µg/mL (≈ 9.19 µM)
Klebsiella pneumoniae [19]
  MIC: > 64 µg/mL
Klebsiella pneumoniae [20]
  MIC: > 64 µg/mL
Pseudomonas aeruginosa [5]
  MIC: 64 µg/mL (≈ 147 µM)
Pseudomonas aeruginosa [6]
  MIC: 4 µg/mL (≈ 9.19 µM)

## CC(C)(O/N=C(\C(=O)N[C@@H]1C(=O)N(S(=O)(=O)[O-])[C@@H]1CNC(=O)c1cc(-c2cc(=O)c(O)cn2O)no1)c1csc(N)n1)C(=O)[O-].[Na+].[Na+]
Pseudomonas aeruginosa [21]
  Ratio: >=64
Pseudomonas aeruginosa [22]
  Ratio: >=64
Pseudomonas aeruginosa [23]
  Ratio: 32
[7]
  IC50: 6 nM
[8]
  IC50: > 300000 nM
[9]
  IC50: 150 nM
[10]
  IC50: 110 nM
Pseudomonas aeruginosa [24]
  MIC: 16 µg/mL
Pseudomonas aeruginosa [25]
  MIC: 32 µg/mL
Pseudomonas aeruginosa [26]
  MIC: 1 µg/mL
Pseudomonas aeruginosa [27]
  MIC: 8 µg/mL
Pseudomonas aeruginosa [28]
  MIC: 0.5 µg/mL
Pseudomonas aeruginosa [29]
  MIC: 8 µg/mL
Pseudomonas aeruginosa [30]
  MIC: 0.25 µg/mL
Pseudomonas aeruginosa [31]
  MIC: 0.25 µg/mL
Pseudomonas aeruginosa [32]
  MIC: 0.125 µg/mL
Pseudomonas aeruginosa [33]
  MIC: 0.125 µg/mL
Pseudomonas aeruginosa [34]
  MIC: 0.25 µg/mL
Pseudomonas aeruginosa [35]
  MIC: 0.25 µg/mL
Pseudomonas aeruginosa [36]
  MIC: 1 µg/mL
Pseudomonas aeruginosa [37]
  MIC: 8 µg/mL
Pseudomonas aeruginosa [38]
  MIC: 0.25 µg/mL
Pseudomonas aeruginosa [39]
  MIC: 0.25 µg/mL
Acinetobacter baumannii
  MIC: 0.125 µg/mL
Klebsiella pneumoniae [20]
  MIC: 1 µg/mL
Pseudomonas aeruginosa [5]
  MIC: 0.25 µg/mL
Pseudomonas aeruginosa [6]
  MIC: 0.25 µg/mL
